Values quoted from earlier work in article PMC12150326 (The Journal of Organic Chemistry, 2025).
Several values for one entry are separate records, joined by “and”; a condition that tells them apart may be missing. Equal entries are not always repeated. Where two headings read alike, the source gives them in different places.

Columns and labels:
Set-up in all cases: method as in NCI-60 database
[1] = test system: HT29; settings: HT29 ref NCI-60 database, cited from earlier work
[2] = test system: 786-0; settings: 786-0 ref NCI-60 database, cited from earlier work
[3] = test system: MOLT-4; settings: MOLT-4 ref NCI-60 database, cited from earlier work
[4] = test system: EKVX; settings: EKVX ref NCI-60 database, cited from earlier work
[5] = test system: DMS 114; settings: DMS 114 ref NCI-60 database, cited from earlier work
[6] = test system: SF-268; settings: SF-268 ref NCI-60 database, cited from earlier work
[7] = test system: UACC-257; settings: UACC-257 ref NCI-60 database; cited from earlier work
[8] = test system: SF-295; settings: SF-295 ref NCI-60 database, cited from earlier work
[9] = test system: MDA-MB-435; settings: MDA-MB-435 ref NCI-60 database, cited from earlier work
[10] = test system: M14; settings: M14 ref NCI-60 database, cited from earlier work
[11] = test system: CCRF-CEM; settings: CCRF-CEM ref NCI-60 database, cited from earlier work
[12] = test system: OVCAR-3; settings: OVCAR-3 ref NCI-60 database, cited from earlier work
[13] = test system: SK-OV-3; settings: SK-OV-3 ref NCI-60 database, cited from earlier work
[14] = test system: NCI 60 cell lines; settings: cited from earlier work; for _MID Log10LC50: mean graph midpoint ref NCI-60 database
[15] = test system: HOP-92; settings: HOP-92 ref NCI-60 database, cited from earlier work
[16] = mean graph ref NCI-60 database, listed as 757/1
[17] = mean graph ref NCI-60 database, listed as 757/9

In the case of COc1cc2c(c(OC)c1OC)-c1ccc(OC)c(=O)cc1[C@@H](NC(C)=O)CC2 [Colchicine, (−)-Colchicine], the GI50 [1] is given as 30 nM, the Log10GI50 [1] is given as -7.55 Molar and the Log10LC50 [1] is given as > -4.00 Molar. For the same compound, the Log10TGI ([1]; listed as 757/1) was -4.61 Molar, the Log10GI50 ([1]; listed as 757/9) was -7.32 Molar and the Log10TGI ([1]; listed as 757/9) was -6.43 Molar. For the same compound, the GI50 [2] was 78 nM, the Log10GI50 [2] was -7.11 Molar and the Log10LC50 [2] was > -4.00 Molar. For the same compound, the Log10TGI [2] was > -4.00 Molar, the Log10GI50 ([2]; listed as 757/9) was -7.54 Molar and -7.46 Molar and the Log10GI50 ([2]; listed as 757/21) was -7.24 Molar and -7.34 Molar and -7.11 Molar. The GI50 [3] was 40 nM, the Log10GI50 [3] was -7.45 Molar and the Log10GI50 ([3]; listed as 757/9) was -7.60 Molar. The Log10LC50 ([3]; listed as 757/9) was -4.90 Molar, the Log10TGI ([3]; listed as 757/9) was < -8.00 Molar and the Log10LC50 ([3]; listed as 757/21) was > -4.00 Molar. The Log10TGI ([3]; listed as 757/21) was > -4.00 Molar, the GI50 [4] was > 100 µM and the Log10GI50 [4] was > -4 Molar. For the same compound, the Log10LC50 [4] was > -4.00 Molar, the Log10TGI [4] was > -4.00 Molar and the Log10GI50 ([4]; listed as 757/21) was > -4.00 Molar. For the same compound, the Log10LC50 [5] was > -4.00 Molar, the Log10GI50 ([5]; listed as 757/1) was -4.75 Molar and the Log10GI50 ([5]; listed as 757/21) was < -8.00 Molar. For the same compound, the Log10TGI ([5]; listed as 757/21) was -7.73 Molar and -7.65 Molar, the GI50 [6] was 4.68 µM and the Log10GI50 [6] was -5.33 Molar. For the same compound, the Log10LC50 [6] was > -4.00 Molar, the Log10GI50 ([6]; listed as 757/9) was -7.12 Molar and the Log10TGI ([6]; listed as 757/9) was -6.03 Molar. For the same compound, the Log10TGI ([6]; listed as 757/21) was > -4.00 Molar, the GI50 [7] was > 100 µM and the Log10GI50 [7] was > -4 Molar. For the same compound, the Log10LC50 [7] was > -4.00 Molar, the Log10TGI [7] was > -4.00 Molar and the Log10GI50 ([8]; listed as 757/1) was < -8.00 Molar and -7.70 Molar. For the same compound, the Log10LC50 ([8]; listed as 757/1) was -4.51 Molar, the Log10GI50 ([8]; listed as 757/9) was -7.68 Molar and -7.69 Molar and the Log10TGI ([8]; listed as 757/9) was -7.30 Molar. For the same compound, the Log10GI50 ([8]; listed as 757/21) was -7.88 Molar and -7.77 Molar, the Log10LC50 ([8]; listed as 757/21) was > -4.00 Molar and the Log10TGI ([8]; listed as 757/21) was -7.39 Molar and -7.37 Molar. For the same compound, the GI50 [9] was < 10 nM, the Log10GI50 [9] was < -8 Molar and the Log10LC50 ([9]; listed as 757/9) was < -8.00 Molar. For the same compound, the Log10TGI ([9]; listed as 757/9) was < -8.00 Molar, the Log10GI50 ([9]; listed as 757/21) was < -8.00 Molar and the Log10LC50 ([9]; listed as 757/21) was > -4.00 Molar. For the same compound, the Log10TGI ([9]; listed as 757/21) was -7.50 Molar, the GI50 [10] was 55 nM and the Log10GI50 [10] was -7.26 Molar. The Log10LC50 [10] was > -4.00 Molar, the Log10GI50 ([10]; listed as 757/9) was -7.68 Molar and the Log10TGI ([10]; listed as 757/9) was -6.43 Molar. For the same compound, the GI50 [11] was 20 nM, the Log10GI50 [11] was -7.82 Molar and the Log10GI50 ([11]; listed as 757/1) was -7.39 Molar. The Log10LC50 ([11]; listed as 757/9) was < -8.00 Molar, the Log10TGI ([11]; listed as 757/9) was < -8.00 Molar and the Log10GI50 ([11]; listed as 757/21) was < -8.00 Molar and -7.93 Molar and -7.82 Molar. The Log10LC50 ([11]; listed as 757/21) was > -4.00 Molar, the Log10TGI ([11]; listed as 757/21) was > -4.00 Molar and the Log10GI50 ([12]; listed as 757/1) was -7.58 Molar. For the same compound, the Log10LC50 ([12]; listed as 757/1) was > -4.00 Molar, the Log10TGI ([12]; listed as 757/1) was -7.12 Molar and the Log10GI50 ([12]; listed as 757/9) was -7.81 Molar. For the same compound, the Log10LC50 ([12]; listed as 757/9) was < -8.00 Molar, the Log10TGI ([12]; listed as 757/9) was -7.44 Molar and the Log10GI50 ([12]; listed as 757/21) was < -8.00 Molar and -7.73 Molar. For the same compound, the Log10LC50 [13] was > -4.00 Molar, the Log10GI50 ([13]; listed as 757/1) was -4.43 Molar and the Log10TGI ([13]; listed as 757/1) was -4.07 Molar and -4.21 Molar. The Log10GI50 ([13]; listed as 757/9) was -7.55 Molar and -7.81 Molar, the Log10TGI ([13]; listed as 757/9) was -7.17 Molar and the Log10GI50 ([13]; listed as 757/21) was -7.71 Molar and -7.65 Molar. For the same compound, the “_MID Log10LC50” value ([14]; listed as 757/1) was -4.07 Molar and -4.08 Molar, the “_MID Log10LC50” value ([14]; listed as 757/21) was -4.0 Molar and -4.12 Molar and -4.01 Molar and the “Delta Log10GI50” value [14, 16] was 0.39 and 0.68. The “Delta Log10LC50” value [14, 16] was 3.26 and 3.02, the “Delta Log10TGI” value [14, 16] was 3.04 and 2.76 and the “Range Log10GI50” value [14, 16] was 3.72. For the same compound, the “Range Log10LC50” value [14, 16] was 3.33 and 3.1, the “Range Log10TGI” value [14, 16] was 3.41 and the “Range Log10GI50” value [14, 17] was 1.41. For the same compound, the “Range Log10LC50” value [14, 17] was 4.0, the “Range Log10TGI” value ([14]; mean graph ref NCI-60 database, listed as 757/21) was 3.89 and the Log10LC50 [15] was > -4.00 Molar. The Log10GI50 ([15]; listed as 757/1) was -7.73 Molar, the Log10TGI ([15]; listed as 757/1) was > -4.00 Molar and the Log10GI50 ([15]; listed as 757/21) was < -8.00 Molar.
